# Source: US20090075937A1, “LHRH ANTAGONISTS FOR THE TREATMENT OF LOWER URINARY TRACT SYMPTOMS” (AETERNA ZENTARIS GmbH, priority 2007, published 2009)
# Columns and labels:
# study subjects [1] = assay: Peroral treatment of study subjects with tetrahydrocarbazole compounds: chemical (hormonal) castration (Examples 4-9); type: in vivo, human; conditions: 50 to 150 mg perorally daily as a single dose, schemes of 6 weeks to 6 months
# Method: In the course of the present invention, the terms “hormone” and “hormonal” within for instance the terms “hormone castration”, “chemical (hormonal) castration” or “hormone withdrawal symptoms” refer to follicle stimulating hormone (FSH), luteinizing hormone (LH) and/or testosterone. Preferably, chemical (hormonal) castration is a testosterone castration and refers to a testosterone blood level of equal or below 1.2 ng/mL, preferably 0.5 ng/mL.
# Study subjects are treated with compound (76) with the following doses according to the following administration schemes: • in a 3 month trial, 75 mg or 150 mg compound (76) administered perorally daily as a single dose on day 2-7 of the menstrual cycle • in a 3 months trial, 75 mg, 100 mg or 150 mg compound (76) administered perorally daily as a single dose on day 2-7 of the menstrual cycle followed by a 3 months treatment-free period • in a 6 months trial, 75 mg or 150 mg compound (76) administered perorally daily as a single dose • 50 mg or 150 mg per compound (76) administered daily as a single dose over 42 days (6 weeks)
# Study subjects are treated with compound (68) with the following doses according to the following administration schemes: • in a 3 month trial, 75 mg or 150 mg compound (68) administered perorally daily as a single dose on day 2-7 of the menstrual cycle • in a 3 months trial, 75 mg, 100 mg or 150 mg compound (68) administered perorally daily as a single dose on day 2-7 of the menstrual cycle followed by a 3 months treatment-free period • in a 6 months trial, 75 mg or 150 mg compound (68) administered perorally daily as a single dose • 50 mg or 150 mg per compound (68) administered daily as a single dose over 42 days (6 weeks)
# Study subjects are treated with compound 36 with the following doses according to the following administration schemes: • in a 3 month trial, 75 mg or 150 mg compound 36 administered perorally daily as a single dose on day 2-7 of the menstrual cycle • in a 3 months trial, 75 mg, 100 mg or 150 mg compound 36 administered perorally daily as a single dose on day 2-7 of the menstrual cycle followed by a 3 months treatment-free period • in a 6 months trial, 75 mg or 150 mg compound 36 administered perorally daily as a single dose • 50 mg or 150 mg per compound 36 administered daily as a single dose over 42 days (6 weeks)
# Study subjects are treated with compound 37 with the following doses according to the following administration schemes: • in a 3 month trial, 75 mg or 150 mg compound 37 administered perorally daily as a single dose on day 2-7 of the menstrual cycle • in a 3 months trial, 75 mg, 100 mg or 150 mg compound 37 administered perorally daily as a single dose on day 2-7 of the menstrual cycle followed by a 3 months treatment-free period • in a 6 months trial, 75 mg or 150 mg compound 37 administered perorally daily as a single dose • 50 mg or 150 mg per compound 37 administered daily as a single dose over 42 days (6 weeks)
# Study subjects are treated with compound 52 with the following doses according to the following administration schemes: • in a 3 month trial, 75 mg or 150 mg compound 52 administered perorally daily as a single dose on day 2-7 of the menstrual cycle • in a 3 months trial, 75 mg, 100 mg or 150 mg compound 52 administered perorally daily as a single dose on day 2-7 of the menstrual cycle followed by a 3 months treatment-free period • in a 6 months trial, 75 mg or 150 mg compound 52 administered perorally daily as a single dose • 50 mg or 150 mg per compound 52 administered daily as a single dose over 42 days (6 weeks)
# study subjects [2] = assay: Peroral treatment of study subjects with tetrahydrocarbazole compounds: nocturia frequency, urgency to urinate, frequency of emptying (Examples 4-9); type: in vivo, human; conditions: 50 to 150 mg perorally daily as a single dose, schemes of 6 weeks to 6 months
# [3] = tested on: testosterone blood levels; assay: Median testosterone blood levels / chemical (hormonal) castration; conditions: blood level
# Method: Preferably, chemical (hormonal) castration is a testosterone castration and refers to a testosterone blood level of equal or below 1.2 ng/mL, preferably 0.5 ng/mL.
# Study subjects were treated with Cetrorelix pamoate with the following doses according to the following administration schemes: • 60 mg Cetrorelix pamaote administered at week 0 and 30 mg Cetrorelix pamaote administered at week 2 (treatment period) followed by up to 5 months of no treatment (treatment-free period) • 60 mg Cetrorelix pamaote administered at week 0 and 60 mg Cetrorelix pamaote administered at week 2 (treatment period) followed by up to 5 months of no treatment (treatment-free period)
# Study subjects were treated with Cetrorelix acetate with the following doses according to the following administration schemes: • 5 mg Cetrorelix acetate administered at week 0, 1, 2 and 3 (total monthly dose of 20 mg) (treatment period) followed by up to 4 months of no treatment (treatment-free period) • 10 mg Cetrorelix acetate administered at week 0 and 10 mg Cetrorelix acetate administered at week 2 (treatment period) followed by up to 4 months of no treatment (treatment-free period) • 10 mg Cetrorelix acetate administered at week 0, 1, 2 and 3 (total monthly dose of 40 mg) (treatment period) followed by up to 4 months of no treatment (treatment-free period)
# Study subjects were treated with Ozarelix with the following doses according to the following administration schemes: • 15 mg Ozarelix administered at week 0 and 15 mg Ozarelix administered at week 2 (treatment period) followed by up to 4 months of no treatment (treatment-free period)
# study subjects [4] = assay: Frequency of emptying: how often the study subjects had to urinate a second time within a 2 hour test period; type: in vivo, human; conditions: for Frequency of emptying (n-times, mean): 15 + 15: 15 mg at week 0 and week 2
# Excerpt: (§1) The results shown are percentage variations from baseline at the beginning of the study (week 0).
# The results shown are mean values, how often the study subjects had to urinate a second time.
# study subjects [5] = assay: Nocturia: how often the study subjects got up during the night in order to urinate; type: in vivo, human; conditions: for Nocturia (n-times, mean): 15 + 15: 15 mg at week 0 and week 2
# Excerpt: as §1
# The results shown are mean values, how often the study subjects had to get up.
# study subjects [6] = assay: IPSS irritative subscore (sum of nocturia, frequency of emptying and urgency to urinate); type: in vivo, human; conditions: for IPSS irritative subscore (nocturia, frequency of emptying, urgency to urinate): percentage variation from baseline
# Excerpt: as §1
# study subjects [7] = assay: Urgency to urinate: how often the study subjects had difficulties to delay the urination; type: in vivo, human; conditions: for Urgency to urinate (n-times, mean): 15 + 15: 15 mg at week 0 and week 2
# Excerpt: The results shown are mean values, how often the study subjects had difficulties.
# [8] = 60 + 30: 60 mg week 0, 30 mg week 2, Week 0
# [9] = 60 + 30: 60 mg week 0, 30 mg week 2, Week 4
# [10] = 60 + 30: 60 mg week 0, 30 mg week 2, Week 8
# [11] = 60 + 30: 60 mg week 0, 30 mg week 2, Week 12
# [12] = 60 + 30: 60 mg week 0, 30 mg week 2, Week 16
# [13] = 60 + 30: 60 mg week 0, 30 mg week 2, Week 20
# [14] = 60 + 30: 60 mg week 0, 30 mg week 2, Week 24
# [15] = 60 + 60: 60 mg week 0, 60 mg week 2, Week 0
# [16] = 60 + 60: 60 mg week 0, 60 mg week 2, Week 4
# [17] = 60 + 60: 60 mg week 0, 60 mg week 2, Week 8
# [18] = 60 + 60: 60 mg week 0, 60 mg week 2, Week 12
# [19] = 60+30 mg and 60+60 mg schemes, largest difference over weeks 4-24
# [20] = 60 + 60: 60 mg week 0, 60 mg week 2, Week 16
# [21] = 60 + 60: 60 mg week 0, 60 mg week 2, Week 20
# [22] = 60 + 60: 60 mg week 0, 60 mg week 2, Week 24
# [23] = 15+15 mg scheme, largest difference, n-times mean
compound,measurement,setting,value
"CCC(C)[C@H](NC(=O)Cc1ccccc1F)C(=O)N[C@]1(C(=O)N[C@H](C(=S)NCC2CCOCC2)C(C)CC)CCc2[nH]c3c(C(F)(F)F)cccc3c2C1 (stereo partly drawn) [Compound 52, (R)-3-{(S)-2-[2-(2-Fluoro-phenyl)-acetylamino]-3-methyl-pentanoylamino}-8-trifluoromethyl-2,3,4,9-tetrahydro-1H-carbazole-3-carboxylic acid {(S)-2-methyl-1-[K(tetrahydro-pyran-4-ylmethyl)-thiocarbamoyl]-butyl}-amide]",chemical (hormonal) castration,study subjects [1],successfully prevented
same,"nocturia frequency, urgency to urinate and/or frequency of emptying compared to placebo",study subjects [2],decrease
"CCC(C)[C@H](NC(=O)Cc1ccccc1F)C(=O)N[C@]1(C(=O)N[C@H](C(=O)NNc2ccccc2)C(C)CC)CCc2[nH]c3c(C(F)(F)F)cccc3c2C1 (stereo partly drawn) [Compound 144, (R)-3-{(S)-2-[2-(2-Fluoro-phenyl)-acetylamino]-3-methyl-pentanoylamino}-8-trifluoromethyl-2,3,4,9-tetrahydro-1H-carbazole-3-carboxylic acid [(S)-2-methyl-1-(N′-phenyl-hydrazinocarbonyl)-butyl]-amide]",chemical (hormonal) castration,study subjects [1],successfully prevented
same,"nocturia frequency, urgency to urinate and/or frequency of emptying compared to placebo",study subjects [2],decrease
"CCC(C)[C@H](NC(=O)Cc1ccccc1F)C(=O)N[C@]1(C(=O)N[C@H](C(=O)NCN2CCOCC2)C(C)CC)CCc2[nH]c3c(C(F)(F)F)cccc3c2C1 (stereo partly drawn) [Compound 36, (R)-3-{(S)-2-[2-(2-Fluoro-phenyl)-acetylamino]-3-methyl-pentanoylamino}-8-trifluoromethyl-2,3,4,9-tetrahydro-1H-carbazole-3-carboxylic acid {(S)-2-methyl-1-[(morpholin-4-ylmethyl)-carbamoyl]-butyl}-amide]",chemical (hormonal) castration,study subjects [1],successfully prevented
same,"nocturia frequency, urgency to urinate and/or frequency of emptying compared to placebo",study subjects [2],decrease
Cetrorelix pamoate,Testosterone [ng/mL] (median),[3]; [8],3.96 ng/mL
same,Testosterone [ng/mL] (median),[3]; [9],2.59 ng/mL
same,Testosterone [ng/mL] (median),[3]; [10],4.01 ng/mL
same,Testosterone [ng/mL] (median),[3]; [11],4.10 ng/mL
same,Testosterone [ng/mL] (median),[3]; [12],3.96 ng/mL
same,Testosterone [ng/mL] (median),[3]; [13],4.12 ng/mL
same,Testosterone [ng/mL] (median),[3]; [14],4.30 ng/mL
same,Testosterone [ng/mL] (median),[3]; [15],3.71 ng/mL
same,Testosterone [ng/mL] (median),[3]; [16],2.19 ng/mL
same,Testosterone [ng/mL] (median),[3]; [17],3.70 ng/mL
same,Testosterone [ng/mL] (median),[3]; [18],3.73 ng/mL
same,further decrease in frequency (of emptying) compared to placebo,study subjects [4]; [19],up to 29%
same,Frequency of emptying (percentage variation from baseline),study subjects [4]; [8],0%
same,Frequency of emptying (percentage variation from baseline),study subjects [4]; [9],−9%
same,Frequency of emptying (percentage variation from baseline),study subjects [4]; [10],−19%
same,Frequency of emptying (percentage variation from baseline),study subjects [4]; [11],−20%
same,Frequency of emptying (percentage variation from baseline),study subjects [4]; [12],−26%
same,Frequency of emptying (percentage variation from baseline),study subjects [4]; [13],−27%
same,Frequency of emptying (percentage variation from baseline),study subjects [4]; [14],−31%
same,Frequency of emptying (percentage variation from baseline),study subjects [4]; [15],0%
same,Frequency of emptying (percentage variation from baseline),study subjects [4]; [16],−16%
same,Frequency of emptying (percentage variation from baseline),study subjects [4]; [17],−25%
same,Frequency of emptying (percentage variation from baseline),study subjects [4]; [18],−24%
same,Frequency of emptying (percentage variation from baseline),study subjects [4]; [20],−29%
same,Frequency of emptying (percentage variation from baseline),study subjects [4]; [21],−25%
same,Frequency of emptying (percentage variation from baseline),study subjects [4]; [22],−34%
same,further decrease in nocturia frequency compared to placebo,study subjects [5]; [19],up to 11%
same,Nocturia (percentage variation from baseline),study subjects [5]; [8],0%
same,Nocturia (percentage variation from baseline),study subjects [5]; [9],−14%
same,Nocturia (percentage variation from baseline),study subjects [5]; [10],−26%
same,Nocturia (percentage variation from baseline),study subjects [5]; [11],−27%
same,Nocturia (percentage variation from baseline),study subjects [5]; [12],−27%
same,Nocturia (percentage variation from baseline),study subjects [5]; [13],−33%
same,Nocturia (percentage variation from baseline),study subjects [5]; [14],−26%
same,Nocturia (percentage variation from baseline),study subjects [5]; [15],0%
same,Nocturia (percentage variation from baseline),study subjects [5]; [16],−17%
same,Nocturia (percentage variation from baseline),study subjects [5]; [17],−26%
same,Nocturia (percentage variation from baseline),study subjects [5]; [18],−30%
same,Nocturia (percentage variation from baseline),study subjects [5]; [20],−25%
same,Nocturia (percentage variation from baseline),study subjects [5]; [21],−27%
same,Nocturia (percentage variation from baseline),study subjects [5]; [22],−29%
same,further decrease in IPSS irritative subscore compared to placebo,study subjects [6]; [19],up to 30%
same,"IPSS irritative subscore (nocturia, frequency of emptying, urgency to urinate)",study subjects [6]; [8],0%
same,"IPSS irritative subscore (nocturia, frequency of emptying, urgency to urinate)",study subjects [6]; [9],−14.8%
same,"IPSS irritative subscore (nocturia, frequency of emptying, urgency to urinate)",study subjects [6]; [10],−33.3%
same,"IPSS irritative subscore (nocturia, frequency of emptying, urgency to urinate)",study subjects [6]; [11],−29.3%
same,"IPSS irritative subscore (nocturia, frequency of emptying, urgency to urinate)",study subjects [6]; [12],−33.3%
same,"IPSS irritative subscore (nocturia, frequency of emptying, urgency to urinate)",study subjects [6]; [13],−33.3%
same,"IPSS irritative subscore (nocturia, frequency of emptying, urgency to urinate)",study subjects [6]; [14],−38%
same,"IPSS irritative subscore (nocturia, frequency of emptying, urgency to urinate)",study subjects [6]; [15],0%
same,"IPSS irritative subscore (nocturia, frequency of emptying, urgency to urinate)",study subjects [6]; [16],−16.7%
same,"IPSS irritative subscore (nocturia, frequency of emptying, urgency to urinate)",study subjects [6]; [17],−25%
same,"IPSS irritative subscore (nocturia, frequency of emptying, urgency to urinate)",study subjects [6]; [18],−25%
same,"IPSS irritative subscore (nocturia, frequency of emptying, urgency to urinate)",study subjects [6]; [20],−25%
same,"IPSS irritative subscore (nocturia, frequency of emptying, urgency to urinate)",study subjects [6]; [21],−27.6%
same,"IPSS irritative subscore (nocturia, frequency of emptying, urgency to urinate)",study subjects [6]; [22],−40%
Ozarelix,decrease in urgency to urinate compared to placebo,study subjects [7]; [23],up to 0.74
same,"Urgency to urinate (n-times, mean)",study subjects [7]; Week 0,2.80 n-times
same,"Urgency to urinate (n-times, mean)",study subjects [7]; Week 4,2.17 n-times
same,"Urgency to urinate (n-times, mean)",study subjects [7]; Week 8,1.89 n-times
same,"Urgency to urinate (n-times, mean)",study subjects [7]; Week 12,1.75 n-times
same,"Urgency to urinate (n-times, mean)",study subjects [7]; Week 16,1.39 n-times
same,"Urgency to urinate (n-times, mean)",study subjects [7]; Week 20,1.71 n-times
same,"Urgency to urinate (n-times, mean)",study subjects [7]; Week 24,1.89 n-times
same,Testosterone [ng/mL] (median),"[3]; 15 + 15: 15 mg at week 0 and week 2, Week 0",3.57 ng/mL
same,Testosterone [ng/mL] (median),"[3]; 15 + 15: 15 mg at week 0 and week 2, Week 4",2.97 ng/mL
same,Testosterone [ng/mL] (median),"[3]; 15 + 15: 15 mg at week 0 and week 2, Week 8",4.19 ng/mL
same,Testosterone [ng/mL] (median),"[3]; 15 + 15: 15 mg at week 0 and week 2, Week 12",4.11 ng/mL
same,Testosterone [ng/mL] (median),"[3]; 15 + 15: 15 mg at week 0 and week 2, Week 16",3.82 ng/mL
same,Testosterone [ng/mL] (median),"[3]; 15 + 15: 15 mg at week 0 and week 2, Week 20",3.92 ng/mL
same,Testosterone [ng/mL] (median),"[3]; 15 + 15: 15 mg at week 0 and week 2, Week 24",3.86 ng/mL
same,decrease in frequency of emptying compared to placebo,study subjects [4]; [23],up to 0.30
same,"Frequency of emptying (n-times, mean)",study subjects [4]; Week 4,2.48 n-times
same,"Frequency of emptying (n-times, mean)",study subjects [4]; Week 8,2.11 n-times
same,"Frequency of emptying (n-times, mean)",study subjects [4]; Week 12,1.82 n-times
same,"Frequency of emptying (n-times, mean)",study subjects [4]; Week 16,1.75 n-times
same,"Frequency of emptying (n-times, mean)",study subjects [4]; Week 20,1.71 n-times
same,"Frequency of emptying (n-times, mean)",study subjects [4]; Week 24,1.75 n-times
same,decrease in nocturia frequency compared to placebo,study subjects [5]; [23],up to 0.76
same,"Nocturia (n-times, mean)",study subjects [5]; Week 0,2.73 n-times
same,"Nocturia (n-times, mean)",study subjects [5]; Week 4,1.83 n-times
same,"Nocturia (n-times, mean)",study subjects [5]; Week 8,1.43 n-times
same,"Nocturia (n-times, mean)",study subjects [5]; Week 12,1.54 n-times
same,"Nocturia (n-times, mean)",study subjects [5]; Week 16,1.54 n-times
same,"Nocturia (n-times, mean)",study subjects [5]; Week 20,1.50 n-times
same,"Nocturia (n-times, mean)",study subjects [5]; Week 24,1.54 n-times
"CCC(C)[C@H](NC(=O)Cc1ccccc1F)C(=O)N[C@]1(C(=O)N[C@H](C(N)=S)C(C)CC)CCc2[nH]c3c(C(F)(F)F)cccc3c2C1 (stereo partly drawn) [compound (76), (R)-3-{(S)-2-[2-(2-fluorophenyl)acetylamino]-3-methyl-pentanoylamino}-8-trifluoromethyl-2,3,4,9-tetrahydro-1H-carbazole-3-carboxylic acid ((S)-2-methyl-1-thiocarbamoylbutyl)amide]",chemical (hormonal) castration,study subjects [1],successfully prevented
same,"nocturia frequency, urgency to urinate and/or frequency of emptying compared to placebo",study subjects [2],decrease
